# Measured values as given in US6894045B2, “Tetrahydropurinones and derivatives thereof as corticotropin releasing factor receptor ligands” (Bristol-Myers Squibb Pharma Company, priority 2001, dated 2005).
row,SMILES,melting point [°C]
1,"CCc1nc2c(n1Cc1ccc(-c3ccccc3)cc1)C(=O)N(C)CN2c1ccc(Cl)cc1Cl [Example 21, 7-([1,1′-biphenyl]-4-ylmethyl)-3-(2,4-dichlorophenyl)-8-ethyl-1-methyl-1,2,3,7-tetrahydro-6H-purin-6-one]",216 to 217
2,"CCc1nc2c(n1C(CC)CC)C(=O)N(C)C(C)N2c1ccc(Cl)cc1Cl (stereo not shown) [Example 3, 3-(2,4-dichlorophenyl)-1,2-dimethyl-8-ethyl-7-(3-pentyl)-1,2,3,7-tetrahydro-6H-purin-6-one]",135 to 136.5
3,"CCCC(CCC)n1c(CC)nc2c1C(=O)N(C)C(CC)N2c1ccc(Cl)cc1Cl (stereo not shown) [Example 6, 3-(2,4-dichlorophenyl)-2,8-diethyl-7-(4-heptyl)-1-methyl-1,2,3,7-tetrahydro-6H-purin-6-one]",116.5 to 117.5

# The next lines start with the values.
row,melting point [°C],SMILES
1,144 to 145.5,"CCCC(CCC)n1c(CC)nc2c1C(=O)N(C)C(C)N2c1ccc(Cl)cc1Cl (stereo not shown) [Example 5, 3-(2,4-dichlorophenyl)-1,2-dimethyl-8-ethyl-7-(4-heptyl)-1,2,3,7-tetrahydro-6H-purin-6-one]"
2,132 to 133,"CCc1nc2c(n1C(CC)CC)C(=O)N(C)CN2c1ccc(Cl)cc1Cl [Example 1, 3-(2,4-dichlorophenyl)-8-ethyl-1-methyl-7-(3-pentyl)-1,2,3,7-tetrahydro-6H-purin-6-one]"
3,117 to 118,"CCCC(CCC)n1c(CC)nc2c1C(=O)N(C)CN2c1ccc(Cl)cc1Cl [Example 2, 3-(2,4-dichlorophenyl)-8-ethyl-7-(4-heptyl)-1-methyl-1,2,3,7-tetrahydro-6H-purin-6-one]"
4,94 to 95,"CCCCC(CC)n1c(CC)nc2c1C(=O)N(C)CN2c1ccc(Cl)cc1Cl (stereo not shown) [Example 49, 3-(2,4-dichlorophenyl)-8-ethyl-7-(3-heptyl)-1-methyl-1,2,3,7-tetrahydro-6H-purin-6-one]"
